Results from the supplement of paper PMC6045584.
± gives the standard deviation of the averaged measurements.

compound: COCC[n+]1c2c(n(Cc3cnccn3)c1C)C(=O)c1ccccc1C2=O [YM155]; assay: surviving fraction relative to DMSO-only wells; higher = less growth inhibition; conditions: 1000 nM; exposure time: 5 days
How it was run: (§1)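 Log-phase tumour cell lines, 250–500 cells per well in 384-well plates, received inhibitors at 0.5, 1, 5, 10, 50, 100, 500 and 1000 nM continuously for five days, starting 24 hours after seeding. Viability was quantified with CellTiter-Glo luminescence and normalised to the median of DMSO-only wells to give surviving fraction. Three screens were run per line, and a line stayed in only with replicate Pearson r >0.7 and median Z' >0.3.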

Test System | surviving fraction
MDAMB361 BREAST | 0.0887 ± 0.0074
HOSMNG BONE | 0.061 ± 0.0036
A549 LUNG | 0.028
CCK81 LARGE INTESTINE | 0.801 ± 0.13

compound: CC(=O)c1c(C)c2cnc(Nc3ccc(N4CCNCC4)cn3)nc2n(C2CCCC2)c1=O; assay: as above; conditions: 0.5 nM; exposure time: 5 days
How it was run: as §1

Test System | surviving fraction
JURKAT HAEMATOPOIETIC AND LYMPHOID TISSUE | 1.09 ± 0.017
SJSA1 BONE | 1 ± 0.037
YAMATO SYNOVIAL | 1.2 ± 0.07
C33A CERVIX | 0.978 ± 0.065
PCI30 HEADNECK | 1.07 ± 0.085
SCC003 HEADNECK | 1.12 ± 0.06
HUO3N1 BONE | 1.01 ± 0.041
T47D BREAST | 1.05 ± 0.019
NOS1 BONE | 0.935 ± 0.071
HELA CERVIX | 1.03 ± 0.037
NY BONE | 1.02 ± 0.024
CASKI CERVIX | 1.02 ± 0.062
BT549 BREAST | 1.1 ± 0.12
COLO320DM LARGE INTESTINE | 1.084 ± 0.0093
MDAMB361 BREAST | 0.924 ± 0.046
HOSMNG BONE | 1.03 ± 0.021
A549 LUNG | 1.03 ± 0.035

same assay, conditions: 1 nM; exposure time: 5 days

Test System | surviving fraction
JURKAT HAEMATOPOIETIC AND LYMPHOID TISSUE | 1.11 ± 0.021
SJSA1 BONE | 1.01 ± 0.099
YAMATO SYNOVIAL | 1.14 ± 0.065
C33A CERVIX | 1.05 ± 0.066
PCI30 HEADNECK | 1.04 ± 0.069
SCC003 HEADNECK | 1.02 ± 0.064
HUO3N1 BONE | 1.04 ± 0.032
T47D BREAST | 1.039 ± 0.0056
NOS1 BONE | 0.997 ± 0.15
HELA CERVIX | 0.986 ± 0.016
NY BONE | 1.03 ± 0.065
CASKI CERVIX | 0.971 ± 0.028
BT549 BREAST | 1.124 ± 0.0096
COLO320DM LARGE INTESTINE | 1.08 ± 0.04
MDAMB361 BREAST | 0.861 ± 0.13
HOSMNG BONE | 0.978 ± 0.16
A549 LUNG | 1.02 ± 0.018

same assay, conditions: 5 nM; exposure time: 5 days

Test System | surviving fraction
JURKAT HAEMATOPOIETIC AND LYMPHOID TISSUE | 1.0573 ± 0.00058
SJSA1 BONE | 1.028 ± 0.0059
YAMATO SYNOVIAL | 1.28 ± 0.11
C33A CERVIX | 1.14 ± 0.13
PCI30 HEADNECK | 1.08 ± 0.1
SCC003 HEADNECK | 1.11 ± 0.036
HUO3N1 BONE | 1.05 ± 0.035
T47D BREAST | 1.09 ± 0.022
NOS1 BONE | 1.17 ± 0.086
HELA CERVIX | 1.01 ± 0.046
NY BONE | 1.05 ± 0.057
CASKI CERVIX | 0.999 ± 0.038
BT549 BREAST | 1.22 ± 0.14
COLO320DM LARGE INTESTINE | 1.12 ± 0.038
MDAMB361 BREAST | 0.882 ± 0.09
HOSMNG BONE | 1.02 ± 0.042
A549 LUNG | 1.05 ± 0.0087

same assay, conditions: 10 nM; exposure time: 5 days

Test System | surviving fraction
JURKAT HAEMATOPOIETIC AND LYMPHOID TISSUE | 1.07 ± 0.033
SJSA1 BONE | 1.04 ± 0.049
YAMATO SYNOVIAL | 1.23 ± 0.14
C33A CERVIX | 1.08 ± 0.067
PCI30 HEADNECK | 1.07 ± 0.03
SCC003 HEADNECK | 1.08 ± 0.086
HUO3N1 BONE | 1.01 ± 0.066
T47D BREAST | 1.06 ± 0.022
NOS1 BONE | 0.969 ± 0.053
HELA CERVIX | 0.959 ± 0.04
NY BONE | 1.04 ± 0.018
CASKI CERVIX | 0.977 ± 0.015
BT549 BREAST | 1.03 ± 0.098
COLO320DM LARGE INTESTINE | 1.1 ± 0.039
MDAMB361 BREAST | 0.825 ± 0.053
HOSMNG BONE | 1 ± 0.048
A549 LUNG | 0.993 ± 0.039

same assay, conditions: 50 nM; exposure time: 5 days

Test System | surviving fraction
JURKAT HAEMATOPOIETIC AND LYMPHOID TISSUE | 1.03 ± 0.034
SJSA1 BONE | 1.08 ± 0.028
YAMATO SYNOVIAL | 1.3 ± 0.061
C33A CERVIX | 1.15 ± 0.13
PCI30 HEADNECK | 1.09 ± 0.062
SCC003 HEADNECK | 1.13 ± 0.14
HUO3N1 BONE | 1.04 ± 0.024
T47D BREAST | 1.17 ± 0.014
NOS1 BONE | 1.07 ± 0.055
HELA CERVIX | 1.14 ± 0.072
NY BONE | 1.12 ± 0.023
CASKI CERVIX | 1.09 ± 0.034
BT549 BREAST | 1.13 ± 0.17
COLO320DM LARGE INTESTINE | 1.08 ± 0.065
MDAMB361 BREAST | 0.881 ± 0.083
HOSMNG BONE | 1.07 ± 0.072
A549 LUNG | 1.07 ± 0.063

same assay, conditions: 100 nM; exposure time: 5 days

Test System | surviving fraction
JURKAT HAEMATOPOIETIC AND LYMPHOID TISSUE | 1.05 ± 0.013
SJSA1 BONE | 1.12 ± 0.013
YAMATO SYNOVIAL | 1.25 ± 0.047
C33A CERVIX | 1.2 ± 0.11
PCI30 HEADNECK | 0.931 ± 0.065
SCC003 HEADNECK | 1.08 ± 0.076
HUO3N1 BONE | 1.1 ± 0.016
T47D BREAST | 1.08 ± 0.045
NOS1 BONE | 1.11 ± 0.034
HELA CERVIX | 1.15 ± 0.034
NY BONE | 1.06 ± 0.043
CASKI CERVIX | 1.08 ± 0.019
BT549 BREAST | 0.979 ± 0.16
COLO320DM LARGE INTESTINE | 1.05 ± 0.048
MDAMB361 BREAST | 0.86 ± 0.032
HOSMNG BONE | 1.05 ± 0.18
A549 LUNG | 1.12 ± 0.042

same assay, conditions: 500 nM; exposure time: 5 days

Test System | surviving fraction
JURKAT HAEMATOPOIETIC AND LYMPHOID TISSUE | 0.847 ± 0.032
SJSA1 BONE | 0.922 ± 0.037
YAMATO SYNOVIAL | 0.984 ± 0.034
C33A CERVIX | 1.01 ± 0.082
PCI30 HEADNECK | 0.81 ± 0.06
SCC003 HEADNECK | 1.06 ± 0.081
HUO3N1 BONE | 1.01 ± 0.05
T47D BREAST | 1.16 ± 0.042
NOS1 BONE | 1.09 ± 0.11
HELA CERVIX | 1.16 ± 0.021
NY BONE | 1.04 ± 0.049
CASKI CERVIX | 1.05 ± 0.049
BT549 BREAST | 1.12 ± 0.12
COLO320DM LARGE INTESTINE | 0.78 ± 0.061
MDAMB361 BREAST | 0.861 ± 0.23
HOSMNG BONE | 1.07 ± 0.094
A549 LUNG | 1.154 ± 0.007

same assay, conditions: 1000 nM; exposure time: 5 days

Test System | surviving fraction
JURKAT HAEMATOPOIETIC AND LYMPHOID TISSUE | 0.793 ± 0.018
SJSA1 BONE | 0.88 ± 0.036
YAMATO SYNOVIAL | 0.935 ± 0.056
C33A CERVIX | 1.16 ± 0.12
PCI30 HEADNECK | 0.781 ± 0.016
SCC003 HEADNECK | 0.884 ± 0.084
HUO3N1 BONE | 1.03 ± 0.022
T47D BREAST | 1.11 ± 0.028
NOS1 BONE | 1.09 ± 0.061
HELA CERVIX | 1.04 ± 0.039
NY BONE | 1.02 ± 0.068
CASKI CERVIX | 1.05 ± 0.028
BT549 BREAST | 1.05 ± 0.036
COLO320DM LARGE INTESTINE | 0.735 ± 0.039
MDAMB361 BREAST | 0.866 ± 0.021
HOSMNG BONE | 1.06 ± 0.16
A549 LUNG | 1.116 ± 0.011
